# Source: patent US20260355199A1, “COMPOSITIONS AND METHODS FOR TREATING OR PREVENTING NONALCOHOLIC STEATOHEPATITIS (NASH), ANOREXIA, DEPRESSION, ENDOMETRIOSIS, AND OTHER DISEASES OR DISORDERS” (priority 2022, published 2026)
# Entries after “also recorded” stand apart in the source; their conditions may differ.
# Assays:
# TET3 [1] = experiment: TET3 protein stability (cycloheximide time course) in GT1-7 cells; type: cell-based; conditions: 10 μM, with cycloheximide; mouse neuronal cells
# Protocol: For Bobcat339 treatment (FIG. 15A and FIG. 15B), GT1-7 cells grown in 24-well plates at 2×10^5 cells/well were incubated with vehicle or Bobcat339 at a final concentration of 10 μM for 6 h, followed by RNA and protein extractions. For TET3 protein stability assay (FIG. 15B), GT1-7 cells in 24-well plates at 2×10^5 cells/well were incubated with vehicle or Bobcat339 at a final concentration of 10 μM for 3 hours, followed by addition of cycloheximide (CHX, Cell Signaling, 2112) at a final concentration of […] in the presence of 10 μM of Bobcat339. Proteins were harvested at 0, 1, 2, and 3 hours after addition of CHX. For TET3 expression restoration experiments (FIG. 15C and FIG. 15D), GT1-7 or SH-SY5Y cells seeded in 24-well plates at 2×10^5 cells/well were infected with Ad-GFP or Ad-TET3 at 4000 gc/cell. Following 16 h of infection, vehicle or Bobcat339 were added at a final concentration of 10 μM. Protein and RNA were isolated 48 h later and analyzed.
# TET3 [2] = experiment: TET3 protein in RAW 264.7 cells; type: cell-based, mouse; conditions: RAW 264.7, 10 μM, 24 h
# Protocol: For siRNA transfection in a 24-well plate scale of Raw 264.7 cells, 10 pmol of NT siRNA (AM4636, Ambion) or Tet3 siRNA (4390815/s101483, Ambion) was mixed with 100 μL of OPTI-MEM (Gibco, 31985-070) by gentle pipetting. In parallel, 3 μL of Lipofectamine RNAiMAX (Invitrogen, 13778-150) was mixed with 100 μL of OPTI-MEM by gentle pipetting. Following 5 min of incubation at RT, the two were combined and the resulting 200 μL of transfection solution was added to each well of cells. After 24 h of incubation at […] in a 5% humidified CO2 tissue culture incubator, 300 μL of growth media was added and incubation was continued until cell harvesting.
# Bobcat339 Treatment of Cultured Cells Bobcat339 powder (Sigma-Aldrich, SML2611) was freshly dissolved in DMSO at a concentration of 5 mM and filtered through a 0.22 micron. Cells grown at a density of 80-90% were incubated in growth media with vehicle (DMSO) or Bobcat339 at a final concentration of 10 μM for 24 h, followed by RNA and protein extraction.
# For TET3 expression restoration experiments, cells seeded in 24-well plates were infected with Ad-GFP or Ad-TET3 at 4000 gc/cell. Following 16 h of infection, vehicle or Bobcat339 were added at a final concentration of 10 μM. Protein and RNA were isolated 48 hours later and analyzed. […]
# [3] = system: Lewis lung carcinoma (LLC); experiment: Syngeneic LLC murine model of lung cancer; type: in vivo, mouse; conditions: for body weight gain: day 16 vs. day 0
# Protocol: Metastatic lung cancer was established by tail vein injection of Lewis lung carcinoma (LLC) (a mouse NSCLC cell line, Bertram et al., 1980, Cancer Lett, 11:63-73) cells into immunocompetent mice (FIG. 30A). Intravenous dosing of Bobcat339 (or vehicle) at 2.5 mg/kg every four days was initiated three days after tumor cell injection. The lungs were collected at day 20 from sacrificed mice. On day 16 as compared to day 0, mice in the Veh group lost ~5% of body weight, whereas those in the Bobcat339 group gained ~6% of body weight, which would be expected for a normal female mouse during this age period (FIG. 30B). […] Severe weight loss is frequently seen in patients with NSCLC, which is also associated with systemic inflammation and cancer cachexia (Staal-van den Brekel et al., 1995, J Clin Oncol, 13:2600-2605; Fredrix et al., 1991, Cancer, 68:1616-1621; Jatoi et al., 2001, Ann Thorac Surg, 72:348-351; Ulmann et al., 2019, Ann Nutr Metab, 75:223-230; Jouinot et al., 2020, Clin Nutr, 39:1893-1899).
# Metastatic lung cancer was established by tail vein injection of Lewis lung carcinoma (LLC) (a mouse NSCLC cell line) (Bertram et al., 1980, Cancer Lett, 11:63-73) cells into immunocompetent mice (FIG. 29). Intravenous dosing of Bobcat339 (or vehicle) at 3 mg/kg every four days was initiated three days after tumor cell injection. The lungs were collected at day 20 from sacrificed mice.
# LLC cells (2.5×10^5 cells/mouse) were injected into the tail vein of female C57BL/6J mice of 8-weeks old. Mice were randomly divided into vehicle (n=5) and Bobcat339 (n=5) groups. Three days after tumor cell injection, the vehicle group mice received tail vein injection of DMSO and the Bobcat339 group with Bobcat339 at the dose of 2.5 or 3 mg/kg body weight every four days. The animals were sacrificed 20 days after tumor cell injection and lungs were isolated and weighed. The whole lung was fixed in 4% paraformaldehyde overnight at 4 °C and embedded in paraffin for histological analysis and IHC. A second cohort of mice (n=5 in each group) treated as above were used for survival studies using moribund as an experimental endpoint.
# [4] = 2.5 mg/kg i.v. every four days, day 20
smiles,measurement,setting,value
"Nc1nc(=O)n(-c2cccc(-c3ccccc3)c2)cc1Cl [Bobcat339, 4-Amino-1-[1,1′-biphenyl]-3-yl-5-chloro-2(1H)-pyrimidinone]",TET3 protein stability,TET3 [1],induced protein degradation of TET3; also recorded: less stable
same,TET3 protein level,TET3 [2],decreased the levels of TET3 protein; also recorded: decreased the level of TET3; also recorded: a decrease in TET3 at the protein level
same,food intake,[3]; 2.5 mg/kg i.v. every four days,no difference in food intake
same,body weight gain,[3]; 2.5 mg/kg i.v. every four days,~ 6%
same,LLC metastases in lungs,[3]; [4],Fewer LLC metastases
same,lung weight,[3]; [4],significantly less
same,LLC metastases in lungs,[3]; 3 mg/kg i.v. every four days,fewer LLC metastases
same,food intake,[3]; 3 mg/kg i.v. every four days,no difference in food intake
same,lung weight,[3]; 3 mg/kg i.v. every four days,significantly less
same,survival rate,[3]; 3 mg/kg i.v. every four days,an increased survival rate
same,body weight gain,[3]; 3 mg/kg i.v. every four days,~ 6%
